What all share (assay type): functional
Holding throughout (details): read-out: ED50 (the source's name)

One assay deals with KB. As to the kind of experiment: Cytotoxicity against human KB cells by tetrazolium salt-based colorimetric assay.
A short description of assay [1]: Cytotoxicity against human […] cells by tetrazolium salt-based colorimetric assay.
In a further assay the test system is A549. As to the kind of experiment: Cytotoxicity against human A549 cells by tetrazolium salt-based colorimetric assay.
A further assay relates to HCT-8. The experiment in a line: Cytotoxicity against human HCT8 cells by tetrazolium salt-based colorimetric assay.
The next assay relates to TE-671. The experiment in a line: Cytotoxicity against human TE671 cells by tetrazolium salt-based colorimetric assay.

`O=C(O[C@@H]1COC(=O)c2cc(O)c(O)c(O)c2-c2c(cc(O)c(O)c2O)C(=O)O[C@H]1[C@@H]1OC(=O)c2cc(O)c(O)c(O)c2-c2c(O)c(O)c(O)c3c2C(=O)O[C@H]1[C@@H]3O)c1cc(O)c(O)c(O)c1` [CASUARININ]: the EC50 with KB is over 10 µg/mL; in assay [1], 2.24 µg/mL; in the assay on A549, over 10 µg/mL; in the assay with HCT-8, over 10 µg/mL; in the assay on TE-671, over 10 µg/mL.

On to `O=C1O[C@H]2[C@@H]3OC(=O)c4cc(O)c(O)c(O)c4-c4c(cc(O)c(O)c4O)C(=O)OC[C@H]2O[C@@H](OC(=O)c2cc(O)c(O)c(O)c2)[C@@H]3OC(=O)c2cc(O)c(O)c3c2[C@@H]2C1=CC(=O)[C@](O)(O3)C2(O)O` [GERANIIN], for which the EC50 with KB was over 10 µg/mL; in assay [1], 0.35 µg/mL; in the assay on A549, over 10 µg/mL; in the assay on HCT-8 it was over 10 µg/mL; in the assay with TE-671, over 10 µg/mL.

In the case of `CC1(C)CC[C@]2(C(=O)O)CC[C@]3(C)C(=CC[C@@H]4[C@@]5(C)C[C@@H](O)[C@@H]6OC(=O)c7cc(O)c(O)c(O)c7-c7c(cc(O)c(O)c7O)C(=O)OC[C@@]6(CO)[C@@H]5CC[C@]43C)[C@@H]2C1` [CASTANOPSINIIN A], the EC50 (with KB; in assay [1]; in the assay with A549; with HCT-8; in the assay on TE-671) was over 10 µg/mL in each case.

In the case of `O=C(O[C@@H]1[C@@H](c2c(O)cc(O)c3c2O[C@H](c2ccc(O)c(O)c2)[C@H](OC(=O)c2cc(O)c(O)c(O)c2)C3)c2c(O)cc(O)cc2O[C@@H]1c1ccc(O)c(O)c1)c1cc(O)c(O)c(O)c1`, the EC50 is over 10 µg/mL with KB; 3.45 µg/mL in assay [1]; over 10 µg/mL in the assay on A549; over 10 µg/mL with HCT-8; over 10 µg/mL with TE-671.

Take `Oc1cc(O)c2c(c1)O[C@@]1(c3ccc(O)c(O)c3)Oc3cc(O)c4c(c3[C@@H]2[C@H]1O)O[C@H](c1ccc(O)c(O)c1)[C@H](O)[C@H]4c1c(O)cc(O)c2c1O[C@H](c1ccc(O)c(O)c1)[C@H](O)C2` [CINNAMTANNIN B1]: the EC50 with KB was over 10 µg/mL; in assay [1], 3.57 µg/mL; in the assay with A549, over 10 µg/mL; in the assay on HCT-8, over 10 µg/mL; in the assay on TE-671 it was over 10 µg/mL.

Consider `O=C(O[C@@H]1Cc2c(O)cc(O)cc2O[C@@H]1c1ccc(O)c(O)c1)c1cc(O)c(O)c(O)c1` [EPICATECHIN GALLATE], for which the EC50 was over 10 µg/mL in the assay on KB; 0.55 µg/mL in assay [1]; over 10 µg/mL with A549; over 10 µg/mL in the assay on HCT-8; over 10 µg/mL with TE-671.

With `O=C(O[C@@H]1O[C@@H]2COC(=O)c3cc(O)c(O)c(O)c3-c3c(cc(O)c(O)c3O)C(=O)O[C@@H]3[C@H]1OC(=O)c1cc(O)c(O)c4c1C1C(O)(O4)[C@]4(O)C[C@@]5(C(=O)O[C@H]6C(O)CO[C@@]65O)[C@]1(CC4=O)C(=O)O[C@@H]32)c1cc(O)c(O)c(O)c1` (stereo not given in full) [ELAEOCARPUSIN], the EC50 in the assay with KB is over 10 µg/mL; in assay [1], 2.62 µg/mL; in the assay with A549 it was over 10 µg/mL; in the assay with HCT-8, over 10 µg/mL; with TE-671 it was over 10 µg/mL.

As for `O=C(O[C@@H]1O[C@@H]2COC(=O)c3cc(O)c(O)c(O)c3-c3c(cc(O)c(O)c3O)C(=O)O[C@H]2[C@H](O)[C@H]1O)c1cc(O)c(O)c(O)c1` [STRICTININ], the EC50 with KB is over 10 µg/mL; in assay [1], 4.86 µg/mL; in the assay on A549, over 10 µg/mL; in the assay with HCT-8 it was over 10 µg/mL; with TE-671, over 10 µg/mL.

Consider `O=C(O[C@@H]1O[C@@H]2COC(=O)c3cc(O)c(O)c(O)c3-c3c(cc(O)c(O)c3O)C(=O)O[C@H]2[C@H](OC(=O)c2cc(O)c(O)c(O)c2)[C@H]1OC(=O)c1cc(O)c(O)c(O)c1)c1cc(O)c(O)c(O)c1` [EUGENIIN], for which the EC50 with KB is over 10 µg/mL; in assay [1], 2.74 µg/mL; in the assay on A549 it was over 10 µg/mL; with HCT-8, over 10 µg/mL; in the assay with TE-671, over 10 µg/mL.

`O=C(O[C@@H]1O[C@@H]2COC(=O)c3cc(O)c(O)c(O)c3-c3c(cc(O)c(O)c3O)C(=O)O[C@H]2[C@@H]2OC(=O)c3cc(O)c(O)c(O)c3-c3c(cc(O)c(O)c3O)C(=O)O[C@@H]12)c1cc(O)c(O)c(Oc2c(O)c(O)c(O)c3c2C(=O)O[C@H]2[C@@H]4OC(=O)c5cc(O)c(O)c(O)c5-c5c(cc(O)c(O)c5O)C(=O)O[C@H]4[C@@H](OC(=O)c4cc(O)c(O)c(Oc5c(O)c(O)c(O)c6c5C(=O)O[C@H]5[C@@H]7OC(=O)c8cc(O)c(O)c(O)c8-c8c(cc(O)c(O)c8O)C(=O)O[C@H]7[C@H](OC(=O)c7cc(O)c(O)c(Oc8c(O)c(O)c(O)c9c8C(=O)O[C@H]8[C@@H]%10OC(=O)c%11cc(O)c(O)c(O)c%11-c%11c(cc(O)c(O)c%11O)C(=O)O[C@H]%10[C@@H](OC(=O)c%10cc(O)c(O)c(O)c%10)O[C@@H]8COC(=O)c8cc(O)c(O)c(O)c8-9)c7)O[C@@H]5COC(=O)c5cc(O)c(O)c(O)c5-6)c4)O[C@@H]2COC(=O)c2cc(O)c(O)c(O)c2-3)c1`: the EC50 with KB is over 10 µg/mL; in assay [1] it was 0.5 µg/mL; with A549 it was over 10 µg/mL; in the assay on HCT-8, over 10 µg/mL; with TE-671, over 10 µg/mL.

For the compound `O=C(O)c1cc(O)c(O)c(Oc2cc3c(c(O)c2O)-c2c(cc(O)c(O)c2O)C(=O)OC[C@H]2O[C@@H](OC(=O)c4cc(O)c(O)c(O)c4)[C@H](OC(=O)c4cc(O)c(O)c(O)c4)[C@@H](OC(=O)c4cc(O)c(O)c(O)c4)[C@@H]2OC3=O)c1`, the EC50 with KB is over 10 µg/mL; in assay [1], 0.44 µg/mL; in the assay with A549, over 10 µg/mL; in the assay on HCT-8 it was over 10 µg/mL; in the assay with TE-671 it was over 10 µg/mL.

Turning to `O=C(O[C@@H]1O[C@H](CO)[C@@H](O)[C@H](O)[C@H]1O)c1cc(O)c(O)c(O)c1`, the EC50 (with KB; in assay [1]; in the assay with A549; with HCT-8; in the assay on TE-671) was over 10 µg/mL each time.

Consider `Oc1cc(O)c2c(c1)O[C@H](c1ccc(O)c(O)c1)[C@H](O)C2` [(-)-EPICATECHIN], for which the EC50 (in the assay on KB; in assay [1]; in the assay on A549; in the assay with HCT-8; in the assay with TE-671) was over 10 µg/mL in each case.

`O=C1OC[C@H]2O[C@@H](O)[C@H](O)[C@@H](O)[C@@H]2OC(=O)c2cc(O)c(O)c(O)c2-c2c(O)c(O)c3oc(=O)c4c(c(O)c(O)c5oc(=O)c2c3c54)-c2c1cc(O)c(O)c2O` [PUNICALIN]: the EC50 (in the assay with KB; in assay [1]; in the assay on A549; with HCT-8; in the assay with TE-671) was over 10 µg/mL throughout.

`O=C1O[C@@H]2[C@@H](OC(=O)c3cc(O)c(O)c(O)c3-c3c1cc(O)c(O)c3O)[C@H](O)O[C@@H]1COC(=O)c3cc(O)c(O)c(O)c3-c3c(O)c(O)c4oc(=O)c5c(c(O)c(O)c6oc(=O)c3c4c65)-c3c(cc(O)c(O)c3O)C(=O)O[C@@H]21` [PUNICALAGIN]: the EC50 (with KB; in assay [1]; with A549; in the assay on HCT-8; in the assay with TE-671) was over 10 µg/mL throughout.
